Entries after “also recorded” stand apart in the source; their conditions may differ.
Columns and labels:
mammary glands = experiment: Cell proliferation (Ki-67 immunohistochemistry) in PND50 mammary glands; assay type: in vivo, Sprague Dawley rats
Description: To determine whether the increase in DNA adduct formation may reflect increased cell proliferation, expression of Ki-67, a marker of cell proliferation, was assessed on PND50 mammary glands using immunohistochemistry. The ki-67 status of each sample was evaluated according to a modified version of the scoring system proposed by Allred et al. The total score for each sample was calculated as the sum of the estimated proportion of positive-staining cells ([…]) plus the estimated intensity of positive-staining cells (0-4).

mammary gland = experiment: Mammary gland morphology of in utero exposed mice (whole mounts); assay type: in vivo, C57BL/6 mice; details: female mice, PND 27
Description: One of the two #4 abdominal mammary glands was dissected and fixed in Carnoy's fixative and processed into whole mounts as previously described (8). The other #4 abdominal gland was snap frozen in liquid nitrogen and stored in −80° C. for future analysis. One of the two thoracic #2-3 mammary glands was fixed in neutral buffered 10% formalin, embedded in paraffin and processed for histology using routine methods, and the other was snap frozen in liquid nitrogen, also stored in −80° C. for future analysis. Uterus was dissected, and one horn with the ovary and vagina attached was fixed in 10% formalin, embedded in paraffin and processed for histology, and the other horn and one ovary were frozen in liquid nitrogen and stored in −80° C.
To assess possible changes in mammary gland morphology, whole amounts of the 4th abdominal glands obtained on PND 27 were processed as previously described (4, 72). The total number of terminal end buds (TEBs) was counted. Identification of TEBs was based on the guidelines established by Russo and Russo (64). The total area (in pixels) of epithelium of the peripubertal (PND 27) mammary glands was analyzed by using ImageJ software (available through NIH web site) on digitized pictures of mammary whole mounts with ducts manually intensified black against white background (shown as an insert in FIG. 16). Ductal elongation (mammary epithelial outgrowth) on PND 50 was measured as the growth in millimeters from the end of the lymph node to the end of the epithelial tree. All the analyses were done blindly using an Olympus dissecting microscope.

Dnmt1 [1] = experiment: Dnmt mRNA expression (qRT-PCR) in mammary glands of F1-F3 rat offspring; assay type: in vivo, Sprague-Dawley rats; details: for levels of Dnmt1 mRNA in mammary gland: PND50
Source text: Total mammary RNA (n=3-6/group) was used as a template for random primed cDNA synthesis (TaqMan MultiScribe Reverse Transcriptase and RT-PCR Reagents, AppliedBiosystems, Roche, N.J., USA). cDNA samples were then used as templates for quantitative RT PCR analysis with previously described specific primers for the target gene, rat Dnmt1 (124) using QuantiTect SYBR green PCR kit (Qiagen Inc., Valencia, Calif.). Each sample was normalized to the reference gene 18S rRNA (27). Two hundred ng of total RNA per sample (n=3-6) was used as a template for random primed cDNA synthesis with a recombinant Moloney murine leukemia virus reverse transcriptase (TaqMan MultiScribe Reverse Transcriptase and RT-PCR Reagents, AppliedBiosystems, Roche, N.J., USA), according to manufacturer's instructions. An RT enzyme-minus control reaction was also included. The cDNA samples were then used as templates for quantitative real time PCR analysis with previously described specific primers for the target gene, rat Dnmt1(29) using QuantiTect SYBR green PCR kit (Qiagen Inc., Valencia, Calif.) and an ABI Prism 7900 Sequence Detection System. Each sample was run in triplicate, and the qPCR run was repeated twice. Absolute gene expression levels were determined using Applied Biosystems' SDS2.3 software and the standard curve method. Concentration of each sample was normalized to the reference gene 18S rRNA (30), and averages of the three runs are shown. Differences in Dnmt1 mRNA expression levels were tested by two-way ANOVA (after log-transformation), followed by Holm-Sidak multicomparison procedure.

miRNAs = experiment: miRNA expression in adult mammary glands of in utero exposed rats; assay type: in vivo
Description: Since several miRNAs are known to be suppressed by E2 in MCF-7 human breast cancer cells (Maillot et al. Cancer Res 2009), we determined whether persistent changes in miRNA expression may be seen in the adult mammary glands of rats exposed to E2 in utero. miRNAs were measured using applied Biosystems TaqManR Array Rodent MicroRNA.

DNMT1 [2] = experiment: DNMT1 mRNA expression (qRT-PCR) in mouse mammary glands and tumors; assay type: in vivo; details: in utero exposure vs control mice
Source text: Total RNA was extracted using an RNeasy lipid mini kit (Qiagen, CA), according to manufacturer's instructions. One […] of total RNA per sample was used as a template for oligo-dT primed cDNA synthesis with a Supterscript reverse transcriptase, using Taqman Reverse Transcription kit (Applied Biosystems, CA). The cDNA samples served then as templates for quantitative real time PCR analysis with specific primers for the target gene using QuantiTect SYBR green PCR kit (Qiagen Inc., Valencia, Calif.) and an ABI Prism 7900 Sequence Detection System. Each sample was run in triplicate on a 384-well plate, and the qPCR run was repeated twice. The Ct values were averaged from the triplicates for each sample. To normalize the target gene expression the ratio to control RNA was calculated, i.e. the averages of the Ct triplicates from the Dnmt1 gene were divided by the average of the triplicates from the 18S gene. To determine the fold change of the target gene expression the results are presented as 2^ΔCt, where ΔCt=CT^target−Ct^18S.
The primer sequences for m18S rRNA were as previously published by Wang et al. (27).
Mammary tumor latency was compared with the final tumor burden in utero EE2 and GEN exposed mice to control mice, and in utero EE2 and GEN exposed mice to control mice exposed to HDAC+DNMT inhibitors separately; analysis was done using one-way ANOVA. Cumulative tumor burden during 16 weeks of tumor monitoring in the three groups, separately in those mice not given HDAC+DNMT inhibitors and those treated with the epigenetic drugs, was analysed using repeated measures one-way ANOVA. Log rank analysis was performed to compare mammary tumor incidence in the control and in utero EE2 and GEN exposed mice, again separately in those mice not given HDAC+DNMT inhibitors and those treated with the epigenetic drugs. Data for changes in DNMT1 expression among the groups in the mammary glands and tumors were assessed using two-way ANOVA, followed by Fisher LSD test

## C#C[C@]1(O)CC[C@H]2[C@@H]3CCc4cc(O)ccc4[C@H]3CC[C@@]21C [EE2, ethinyl estradiol]
Mammary glands; F1 generation
  cell proliferation by ki-67: non-significantly increased
Mammary glands; F2 generation, compared to the controls
  cell proliferation by ki-67: significantly lower
Mammary gland
  total epithelial area of the glands: significantly increased
Dnmt1 [1]; F1 generation
  levels of Dnmt1 mRNA in mammary gland: increased
Dnmt1 [1]; F2 and F3 generation offspring
  levels of Dnmt1 mRNA in mammary gland: this increase persisted
Dnmt1 [1]; in utero exposed rats, not shown
  DNMT3a or 3b expression in the mammary glands: Neither DNMT3a or 3b were altered
miRNAs; mammary glands of rats exposed in utero
  expression of miR-26a, miR-101, miR-148, miR-152, miR-194, miR-26a/b: suppressed
miRNAs; maternal exposure
  expression of several miRNAs in the mammary gland: permanent down-regulation
DNMT1 [2]
  DNMT1 expression in mammary tumors: significantly lower
  expression of DNMT1 in mammary glands: an increase in the expression of DNMT1; also recorded: persistent up-regulation
